Consider 29 compounds from patent US8906925B2, “Pyrido[4,3-B]indoles containing rigid moieties” (Medivation Technologies, Inc., priority 2008, dated 2014).

Read-outs that look alike come from different tables or passages of the source.

For one assay, the target named is histamine receptor H1 (Homo sapiens, UniProt P35367). Put plainly: Histamine H1 radioligand binding ([3H]Pyrilamine). To be noted: read-out: Histamine Binding (1 μM) H1, percent inhibition of specific binding, 1 μM. As to the method: To evaluate in radioligand binding assays the activity of compounds of the invention, human recombinant histamine H1 receptor expressed in Chinese hamster ovary (CHO) cells (De Backer, M. D. et al., Biochem. Biophys. Res. Comm. 197(3):1601, 1993) in a modified Tris-HCl buffer (50 mM Tris-HCl, pH 7.4, 2 mM MgCl2, 100 mM NaCl, 250 mM Sucrose) was used. Compounds of the invention were incubated with 1.2 nM [^3H]Pyrilamine for 180 min. at 25° C. Non-specific binding was estimated in the presence of 1 μM pyrilamine. Receptor proteins were filtered and washed, the filters were then counted to determine [^3H]Pyrilamine specifically bound. Compounds were screened at 1 μM or lower, using 1% DMSO as vehicle. Biochemical assay results are presented as the percent inhibition of specific binding in Table 8.

In assay [1] the target is human dopamine D2L receptor (Homo sapiens, UniProt P14416). Put plainly: Dopamine D2L radioligand binding ([3H]Spiperone). As to conditions: compound at 1 μM. From the text: Non-specific binding was estimated in the presence of […] Haloperidol. Receptor proteins were filtered and washed, the filters were then counted to determine [^3H]Spiperone specifically bound. […] Biochemical assay results are presented as the percent inhibition of specific binding in Table 9.

The mark [2] stands for this setting: […] [3H]Spiperone, read-out: Inhibition of ligand binding, Dopamine D2L (percent inhibition of specific binding).
[3] abbreviates: percent inhibition of specific binding, read-out: Inhibition of ligand binding, Dopamine D2L.

Chain of human dopamine D2L receptor (P14416 whole entry): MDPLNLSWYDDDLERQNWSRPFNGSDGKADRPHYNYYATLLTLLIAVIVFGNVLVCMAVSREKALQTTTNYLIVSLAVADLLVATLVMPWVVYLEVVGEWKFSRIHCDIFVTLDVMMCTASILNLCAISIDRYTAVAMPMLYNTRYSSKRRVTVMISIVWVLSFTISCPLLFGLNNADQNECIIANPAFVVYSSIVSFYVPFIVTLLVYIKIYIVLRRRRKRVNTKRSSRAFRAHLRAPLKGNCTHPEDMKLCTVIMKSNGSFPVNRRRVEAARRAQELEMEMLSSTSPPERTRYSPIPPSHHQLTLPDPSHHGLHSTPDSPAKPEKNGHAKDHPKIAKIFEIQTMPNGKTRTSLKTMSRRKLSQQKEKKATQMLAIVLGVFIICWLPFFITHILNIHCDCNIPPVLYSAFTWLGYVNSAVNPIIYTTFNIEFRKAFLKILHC
Chain of histamine receptor H1 (P35367 whole entry): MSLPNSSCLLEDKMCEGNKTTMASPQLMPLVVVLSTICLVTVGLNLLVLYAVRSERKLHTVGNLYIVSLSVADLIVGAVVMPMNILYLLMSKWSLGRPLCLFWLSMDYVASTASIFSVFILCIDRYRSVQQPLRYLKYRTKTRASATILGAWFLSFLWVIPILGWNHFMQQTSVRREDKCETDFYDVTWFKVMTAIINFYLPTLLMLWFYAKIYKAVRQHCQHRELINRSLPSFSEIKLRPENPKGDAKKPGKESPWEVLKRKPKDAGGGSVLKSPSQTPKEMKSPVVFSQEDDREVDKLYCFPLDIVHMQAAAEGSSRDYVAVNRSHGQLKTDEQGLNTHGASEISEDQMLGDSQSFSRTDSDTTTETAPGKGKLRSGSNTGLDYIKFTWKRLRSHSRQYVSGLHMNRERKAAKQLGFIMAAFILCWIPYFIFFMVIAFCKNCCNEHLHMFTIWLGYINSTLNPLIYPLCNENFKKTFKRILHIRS

On to `CN1CCc2c(c3cc(Cl)ccc3n2CC(O)(c2ccccc2)c2ccccc2)C1` [Compound No. 466, 2-(8-chloro-2-methyl-3,4-dihydro-1H-pyrido[4,3-b]indol-5(2H)-yl)-1,1-diphenylethanol], for which the inhibition at 1 µM on histamine receptor H1 came to 10%; in assay [1] (setting [2]), 54%.

For `C/C(=C\n1c2c(c3cc(Cl)ccc31)CN(C)CC2)c1cccs1` [Compound 338, (E)-8-chloro-2-methyl-5-(2-(thiophen-2-yl)prop-1-enyl)-2,3,4,5-tetrahydro-1H-pyrido[4,3-b]indole], the inhibition at 1 µM at histamine receptor H1 worked out at 83%; in assay [1] (setting [3]) it was 97%.

Regarding `C/C=C(/Cn1c2c(c3cc(C)ccc31)CN(C)CC2)c1ccncc1` [Compound No. 361, (E)-2,8-dimethyl-5-(2-(pyridin-4-yl)but-2-enyl)-2,3,4,5-tetrahydro-1H-pyrido[4,3-b]indole], the inhibition at 1 µM stood at 96% on histamine receptor H1 and 51% in assay [1] (setting [2]).

Consider `Cc1ccc2c(c1)c1c(n2C(C)C(O)c2ccccc2)CCN(C)C1` (stereo not shown) [Compound No. 468, 2-(2,8-dimethyl-3,4-dihydro-1H-pyrido[4,3-b]indol-5(2H)-yl)-1-phenylpropan-1-ol], for which the inhibition at 1 µM was 82% at histamine receptor H1 and 12% in assay [1] (setting [2]).

Take `CNc1ccc2c(c1)c1c(n2/C=C(\C)c2ccncc2)CCN(C)C1` [compound 433, (E)-N,2-dimethyl-5-(2-(pyridin-4-yl)prop-1-enyl)-2,3,4,5-tetrahydro-1H-pyrido[4,3-b]indol-8-amine]: the inhibition at 1 µM worked out at 13% on histamine receptor H1 and 61% in assay [1] (setting [2]).

With `COCCNc1ccc2c(c1)c1c(n2/C=C(\C)c2ccncc2)CCN(C)C1` [compound 440], the inhibition at 1 µM worked out at 4% at histamine receptor H1 and 16% in assay [1] (setting [2]).

In the case of `Cc1ccc2c(c1)c1c(n2C#Cc2cccc(N(C)C)c2)CCN(C)C1` [Compound No. 489, 3-((2,8-dimethyl-3,4-dihydro-1H-pyrido[4,3-b]indol-5(2H)-vyl)ethynyl)-N,N-dimethylaniline], the inhibition at 1 µM at histamine receptor H1 came to 13%; in assay [1] (setting [2]) it was 9%.

On to `C/C(=C\n1c2c(c3cc(C)ccc31)CN(C)CC2)c1cccc(S(C)(=O)=O)c1` [Compound No. 473, (E)-2,8-dimethyl-5-(2-(3-(methylsulfonyl)phenyl)prop-1-enyl)-2,3,4,5-tetrahydro-1H-pyrido[4,3-b]indole], for which the inhibition at 1 µM came out at 35% at histamine receptor H1 and 59% in assay [1] (setting [2]).

As for `C/C(=C\n1c2c(c3cc(C)ccc31)CN(C)[C@H](C)C2)c1ccncc1` [compound 390, (R,E)-2,3,8-trimethyl-5-(2-(pyridin-4-yl)prop-1-enyl)-2,3,4,5-tetrahydro-1H-pyrido[4,3-b]indole], the inhibition at 1 µM was 49% on histamine receptor H1 and 97% in assay [1] (setting [2]).

Turning to `C/C(=C\n1c2c(c3cc(C)ccc31)CN(C)CC2)c1cc(F)c(O)c(F)c1` [compound 452, (E)-4-(1-(2,8-dimethyl-3,4-dihydro-1H-pyrido[4,3-b]indol-5(2H)-yl)prop-1-en-2-yl)-2,6-difluorophenol], the inhibition at 1 µM turned out to be 18% on histamine receptor H1 and 71% in assay [1] (setting [2]).

For `CCCc1ccc(C#Cn2c3c(c4cc(Cl)ccc42)CN(C)CC3)cn1` [Compound No. 487, 8-chloro-2-methyl-5-((6-propylpyridin-3-yl)ethynyl)-2,3,4,5-tetrahydro-1H-pyrido[4,3-b]indole], the inhibition at 1 µM at histamine receptor H1 was determined as 75%; in assay [1] (setting [2]), 17%.

Consider `C/C=C(\Cn1c2c(c3cc(Cl)ccc31)CN(C)CC2)c1ccncc1` [Compound No. 360, (Z)-8-chloro-2-methyl-5-(2-(pyridin-4-yl)but-2-enyl)-2,3,4,5-tetrahydro-1H-pyrido[4,3-b]indole], for which the inhibition at 1 µM at histamine receptor H1 worked out at 47%; in assay [1] (setting [2]), 36%.

For `C/C(=C\n1c2c(c3cc(C)ccc31)CNCC2)c1ccncc1` [compound 401, (E)-8-methyl-5-(2-(pyridin-4-yl)prop-1-enyl)-2,3,4,5-tetrahydro-1H-pyrido[4,3-b]indole], the inhibition at 1 µM is 8% on histamine receptor H1 and 57% in assay [1] (setting [2]).

Turning to `C/C(=C\n1c2c(c3cc(C)ccc31)CN(C)CC2)c1ccsc1` [compound 387, (E)-2,8-dimethyl-5-(2-(thiophen-3-yl)prop-1-enyl)-2,3,4,5-tetrahydro-1H-pyrido[4,3-b]indole], the inhibition at 1 µM came out at 84% at histamine receptor H1 and 99% in assay [1] (setting [2]).

With `Cc1ccc2c(c1)c1c(n2/C(=C(/F)c2ccc(C)nc2)c2ccc(C)nc2)CCN(C)C1` [compound 419], the inhibition at 1 µM on histamine receptor H1 is 52%; in assay [1] (setting [2]), 20%.

In the case of `COc1ccc(C#Cn2c3c(c4cc(C)ccc42)CN(C)CC3)cn1` [Compound No. 494, 5-((6-methoxypyridin-3-yl)ethynyl)-2,8-dimethyl-2,3,4,5-tetrahydro-1H-pyrido[4,3-b]indole], the inhibition at 1 µM on histamine receptor H1 came out at 2%; in assay [1] (setting [2]) it was 13%.

As to `CC/C(=C\n1c2c(c3cc(C)ccc31)CN(C)CC2)c1ccncc1` [Compound 283, (E)-2,8-dimethyl-5-(2-(pyridin-4-yl)but-1-enyl)-2,3,4,5-tetrahydro-1H-pyrido[4,3-b]indole], the inhibition at 1 µM on histamine receptor H1 came to 23%; in assay [1] (setting [3]) it was 66%.

As to `C/C(=C\n1c2c(c3ccc(C(C)C)cc31)CN(C)CC2)c1ccncc1` [Compound 334, (E)-7-isopropyl-2-methyl-5-(2-(pyridin-4-yl)prop-1-enyl)-2,3,4,5-tetrahydro-1H-pyrido[4,3-b]indole], the inhibition at 1 µM at histamine receptor H1 was 18%; in assay [1] (setting [3]), 90%.

With `CO/C(=C\n1c2c(c3cc(C)ccc31)CN(C)CC2)c1ccncc1` [compound 413, (Z)-5-(2-methoxy-2-(pyridin-4-yl)vinyl)-2,8-dimethyl-2,3,4,5-tetrahydro-1H-pyrido[4,3-b]indole], the inhibition at 1 µM amounted to 16% on histamine receptor H1 and 60% in assay [1] (setting [2]).

As to `CNc1ccc2c(c1)c1c(n2/C=C(\C)c2ccc(F)cc2)CCN(C)C1` [compound 431, (E)-5-(2-(4-fluorophenyl)prop-1-enyl)-N,2-dimethyl-2,3,4,5-tetrahydro-1H-pyrido[4,3-b]indol-8-amine], the inhibition at 1 µM is 33% on histamine receptor H1 and 80% in assay [1] (setting [2]).

For `CN1CCc2c(c3cc(Cl)ccc3n2C=C(c2ccccc2)c2ccccc2)C1` [compound 407, 8-chloro-5-(2,2-diphenylvinyl)-2-methyl-2,3,4,5-tetrahydro-1H-pyrido[4,3-b]indole], the inhibition at 1 µM at histamine receptor H1 is 10%; in assay [1] (setting [2]), 74%.

As for `Cc1ccc2c(c1)c1c(n2/C=C(\F)c2ccncc2)CCN(C)C1` [compound 426, (Z)-5-(2-fluoro-2-(pyridin-4-yl)vinyl)-2,8-dimethyl-2,3,4,5-tetrahydro-1H-pyrido[4,3-b]indole], the inhibition at 1 µM is 50% at histamine receptor H1 and 32% in assay [1] (setting [2]).

As for `CC/C(=C\n1c2c(c3cc(Cl)ccc31)CN(C)CC2)c1ccncc1` [Compound 284, (E)-8-chloro-2-methyl-5-(2-(pyridin-4-yl)but-1-enyl)-2,3,4,5-tetrahydro-1H-pyrido[4,3-b]indole], the inhibition at 1 µM is 40% on histamine receptor H1 and 84% in assay [1] (setting [3]).

`C/C(=C\n1c2c(c3cc(C)ccc31)CN(C)[C@@H](C)C2)c1ccncc1` [compound 389, (S,E)-2,3,8-trimethyl-5-(2-(pyridin-4-yl)prop-1-enyl)-2,3,4,5-tetrahydro-1H-pyrido[4,3-b]indole]: the inhibition at 1 µM on histamine receptor H1 stood at 39%; in assay [1] (setting [2]), 49%.

As to `CN1CCc2c(c3cc(Cl)ccc3n2/C=C(\c2ccccc2)c2ccncc2)C1` [Compound No. 460, (E)-8-chloro-2-methyl-5-(2-phenyl-2-(pyridin-4-yl)vinyl)-2,3,4,5-tetrahydro-1H-pyrido[4,3-b]indole], the inhibition at 1 µM on histamine receptor H1 worked out at 17%; in assay [1] (setting [2]), 67%.

As to `Cc1ccc2c(c1)c1c(n2C#Cc2cccs2)CCN(C)C1` [Compound No. 493, 2,8-dimethyl-5-(thiophen-2-ylethynyl)-2,3,4,5-tetrahydro-1H-pyrido[4,3-b]indole], the inhibition at 1 µM on histamine receptor H1 was found to be 69%; in assay [1] (setting [2]), 56%.

For `COc1c(F)cc(/C(C)=C/n2c3c(c4cc(C)ccc42)CN(C)CC3)cc1F` [compound 456, (E)-5-(2-(3,5-difluoro-4-methoxyphenyl)prop-1-enyl)-2,8-dimethyl-2,3,4,5-tetrahydro-1H-pyrido[4,3-b]indole], the results for the inhibition at 1 µM (at histamine receptor H1; in assay [1] (setting [2])) were 17% and 80%, respectively.

As to `C/C(=C\n1c2c(c3cc(C)ccc31)CN(C)CC2)c1cc(C)nc(C)c1` [compound 399, (E)-5-(2-(2,6-dimethylpyridin-4-yl)prop-1-enyl)-2,8-dimethyl-2,3,4,5-tetrahydro-1H-pyrido[4,3-b]indole], the inhibition at 1 µM on histamine receptor H1 came out at 13%; in assay [1] (setting [2]), 73%.

In the case of `C/C(=C\n1c2c(c3cc(NC4CCC4)ccc31)CN(C)CC2)c1ccncc1` [compound 448, (E)-N-cyclobutyl-2-methyl-5-(2-(pyridin-4-yl)prop-1-enyl)-2,3,4,5-tetrahydro-1H-pyrido[4,3-b]indol-8-amine], the inhibition at 1 µM was -10% on histamine receptor H1 and 79% in assay [1] (setting [2]).
